# In patent US9120816B2, “Oxanorbornadiene derivatives and their anticancer activities” (priority 2012, dated 2015):
# Like-named read-outs stand apart in the source and are kept apart here.
# Legend:
# [1] = system: MCF-7 (human breast adenocarcinoma); experiment: MTT cytotoxicity assay, MCF-7; assay type: cell-based; conditions: for IC50: Homo sapiens, MCF7
# Experimental: (§1) Cytotoxic activities of all compounds are evaluated by MTT assay using KYSE-150 (human oesophagus carcinoma), MKN-45 (human gastric aednocarcinoma), DLD-1 (human colorectal carcinoma cell line), HepG2 (human hepatocellular carcinoma), MCF-7 (human breast adenocarcinoma), and MDA-MB-231 (human breast adenocarcinoma). Canthatidin is used as positive control.
# (§2) Cells are seeded in a 96-well plate (4×10^3 cells/well) and allowed to attach overnight.
# (§3) After the recovery, cells are treated with 1.56 μM, 3.125 μM, 6.25 μM, 12.5 μM, 25 μM, 50 μM of each of the compounds in culture medium for 48 hrs. […] Finally, the culture medium is removed and 200 μL of DMSO are added to each well to dissolve the purple formazan crystals.
# [2] = system: MDA-MB-231 (human breast adenocarcinoma); experiment: MTT cytotoxicity assay, MDA-MB-231; assay type: cell-based; conditions: for IC50: Homo sapiens, MDA-MB-231
# Experimental: as §1, §2, §3
# [3] = system: DLD-1 (human colorectal carcinoma cell line); experiment: MTT cytotoxicity assay, DLD-1; assay type: cell-based; conditions: for IC50: Homo sapiens, DLD-1
# Experimental: as §1, §2, §3
# [4] = system: HepG2 (human hepatocellular carcinoma); experiment: MTT cytotoxicity assay, HepG2; assay type: cell-based; conditions: 48 hrs treatment
# Experimental: as §1, §2, §3
# [5] = system: KYSE-150 (human oesophagus carcinoma); experiment: MTT cytotoxicity assay, KYSE-150; assay type: cell-based; conditions: for IC50: Homo sapiens, KYSE-150
# Experimental: as §1, §2, §3
# [6] = system: MKN-45 (human gastric aednocarcinoma); experiment: MTT cytotoxicity assay, MKN-45; assay type: cell-based; conditions: 48 hrs treatment
# Experimental: as §1, §2, §3
# KYSE-150 cells = experiment: Wound healing assay; assay type: cell-based, human; conditions: for Cell migration into the wound: KYSE-150 monolayer, 72 h, 1 and 2.5 μM/mL; for Viability of KYSE-150 cells as compared to controls: highest concentration of 1 μM/mL and 2.5 μM/mL
# Experimental: In addition, wound healing assay is used to test whether the compounds 1, 2 and 3 could affect cell motility.
# A wound healing assay is performed as follows: KYESE-150 cells are seeded in each well of the 12-well plate at 50% confluence in completed medium. After 24 hrs seeding, the monolayer is wounded by scoring with a sterile plastic tip (1 mL), then washed several times with medium to remove cell debris and then incubated in conditioned medium in the absence or presence of the tested compounds for various periods of time up to 72 h. […] Cell migration into the wound surface is monitored by Olympus IX71 microscopy and digitally photographed.
# [7] = MTT, 48 hrs treatment, read-out: Cytotoxicity IC50, MCF-7
# [8] = MTT, 48 hrs treatment, read-out: Cytotoxicity IC50, MDA-MB-231
# [9] = MTT, 48 hrs treatment, read-out: Cytotoxicity IC50, DLD-1
# [10] = MTT, 48 hrs treatment, read-out: Cytotoxicity IC50, KYSE-150
Compound,"IC50 [1, 7] [µM]","IC50 [2, 8] [µM]","IC50 [3, 9] [µM]",IC50 [4] [µM],"IC50 [5, 10] [µM]",IC50 [6] [µM],"IC50 ([1]; summary statement in conclusion, read-out: IC50 of cell growth inhibition, MCF-7) [µM]",Cell migration into the wound (KYSE-150 cells),Viability of KYSE-150 cells as compared to controls (KYSE-150 cells),"IC50 ([2]; summary statement in conclusion, read-out: IC50 of cell growth inhibition, MDA-MB-231) [µM]","IC50 ([3]; summary statement in conclusion, read-out: IC50 of cell growth inhibition, DLD-1) [µM]","IC50 ([5]; summary statement in conclusion, read-out: IC50 of cell growth inhibition, KYSE-150) [µM]",Growth inhibition of MCF-7 cells as compared to positive control ([1]; compared with canthatidin),Growth inhibition of MDA-MB-231 cells as compared to positive control ([2]; compared with canthatidin),Growth inhibition of KYSE-150 cells as compared to positive control ([5]; compared with canthatidin),Growth inhibition of DLD-1 cells as compared to positive control ([3]; compared with canthatidin)
"C[C@@]12C(=O)OC(=O)[C@]1(C)[C@H]1CC[C@@H]2O1 [Cantharidin, reference compound]",13,4.69,13.9,3.1,3.1,4.52,–,–,–,–,–,–,–,–,–,–
COC(=O)C1=C(C(=O)OC)C2OC1CC2C#Cc1ccc(OC)cc1 (centres unmarked) [Compound 1],2.46,2.3,6,6.2,1.82,21.3,< 10,do not migrate into the wound,do not alter the viability,< 10,< 10,< 10,–,–,–,–
CCOC(=O)C1=C(C(=O)OCC)C2OC1CC2C#Cc1ccc(OC)cc1 (centres unmarked) [Compound 2],6.39,2.81,1.74,15.7,1.4,26,–,do not migrate into the wound,do not alter the viability,–,–,–,growth-inhibiting effects,growth-inhibiting effects,growth-inhibiting effects,–
COc1ccc(C#CC2CC3OC2C(C(=O)OC(C)(C)C)=C3C(=O)OC(C)(C)C)cc1 (centres unmarked) [Compound 3],33.4,50.2,3.77,8.4,5.4,6.31,–,do not migrate into the wound,do not alter the viability,–,–,–,–,–,–,growth-inhibiting effects
